The test system of one assay is KRAS-G12D mutant cells. The note with it: KRAS-G12D mutant cells versus wild-type tumor cells; cited from earlier work.
For assay [1], the system named is xenograft tumor models of both pancreatic cancer and colorectal cancer. The note with it: cited from earlier work.
Assay [2] deals with KRAS G12D mutant human gastric cancer cell AGS. Briefly: 3D cell proliferation inhibition assay, AGS. To be noted: 168 h, 7 days, CTG, numeric values. The assay is classed as cell-based. In a few lines:
(§1)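 CellTiter-Glo luminescence, read after 60 min at room temperature, measured growth of 3D cultures (5×10^2 cells/well) exposed for 7 days to compounds at final concentrations of 10000–0.026 nM in 0.2% DMSO. Percent inhibition, scaled between DMSO-treated cells and medium alone, was fitted against log concentration for IC50.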

The target of assay [3] is T1, KRAS-G12D (Homo sapiens, UniProt P01116, G12D).
T1 construct: endogenous in cells; host or cells: A-427 (ATCC), AGS, AsPc-1, Panc 04.03
Briefly: KRAS-G12D degradation assay (Western Blot), A-427 cells. The assay is classed as cell-based. To be noted: A427 cells, 24 h, numeric values; for Dmax: A-427. In a few lines: (§2)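 Each KRAS G12D mutant line (A-427, AGS, AsPc-1, Panc 04.03) was seeded at 5×10^5 cells/well and treated 24 h at 37 °C with 0.03–3000 nM compound (final DMSO 0.25%). KRAS in lysates was measured by Western blot, normalized to β-actin and compared with controls, giving DC50 and Dmax from curve fits.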
In general terms: Immunoblotting shows a protein as a band on a membrane.

Assay [4] has as its target T1, KRAS-G12D. Nature of the assay: KRAS-G12D degradation assay (Western Blot), AGS cells. The assay is classed as cell-based. To be noted: 24 h. On the procedure: (§3) The degradation effects of the compounds on KRAS-G12D were investigated on KRAS G12D mutant human lung cancer cell A-427 (ATCC), KRAS G12D mutant human gastric cancer cell AGS, KRAS G12D mutant human metastatic pancreatic cancer cell AsPc-1, and KRAS G12D mutant human pancreatic adenocarcinoma cell Panc 04.03. The specific procedures were as follows: 0.95 mL of cells were seeded into each well of a 24-well cell culture plate to achieve a cell density of 5×10^5 cells/well; and the cell plate was incubated in an incubator at 37° C. with 5% CO2 overnight. Then 50 μL of the compound solution after dilution was added to each of the wells with the corresponding cells, so that the final concentration of the compound was in a range of 0.03-3000 nM. The final concentration of DMSO was 0.25%. After the compounds were added, the cell plate was incubated in the incubator at 37° C. with 5% CO2 for 24 h. The culture medium in the 24-well cell culture plate was removed, and the plate was washed twice with 1×PBS (KeyGEN). 120 μL of RIPA (strong) lysis buffer (Beyotime) supplemented with 1 mM phenylmethylsulfonyl fluoride, a protease inhibitor mixture (Beyotime), and a protease phosphatase inhibitor mixture (Beyotime) was added to lyse adherent A-427 cells at the bottom of the cell culture plate. After the plate was left to stand on ice for 30 min, the protein lysate in each well was transferred to a 1.5 mL centrifuge tube and centrifuged at 15000 g for 20 min at 4° C. The cell lysate supernatants after centrifugation were cryopreserved in a refrigerator at −80° C. for later use.
(§4) After the samples of the cell lysate supernatants that had been prepared were thawed from the refrigerator at −80° C., the total protein concentrations of the cell lysates were determined using a BCA protein quantification kit (Tiangen). The total protein concentrations of the samples were then adjusted to 0.5 μg/μL with PBS and 5×SDS-PAGE protein loading buffer (Beyotime), and the samples were incubated in a water bath at 100° C. for 15 min. The samples were then incubated in an ice bath for 5 min and centrifuged at 14000 g for 1 min at 4° C., and the supernatants were mixed well as loading samples for the Western Blot assay. The samples were loaded into wells of a 10% precast gel (KeyGEN) with a loading volume of 10 μL (total protein: 5 μg), a sufficient Tris-MOPS-SDS running buffer (Adamas) was added, and then electrophoresis was performed at a constant voltage of 120 V for 55 min. After the electrophoresis, the proteins on the gel were transferred to PVDF membranes at a constant current of 250 mA for 55 min. After the membrane transfer, the PVDF membranes were incubated in 1× Quick Block blocking buffer (Beyotime) at room temperature for 30 min. After the blocking, the PVDF membranes were separately incubated at 4° C. overnight with the KRAS antibody (Abcam) diluted in a ratio of 1:1000 and the […] antibody (Abcam) diluted in a ratio of 1:2000 in 5% BSA as the diluent, and then washed with 1×TBST buffer (2.4 g of Tris, 8.8 g of NaCl, 1.5 mL of Tween 20, with pH adjusted to 7.4, with the volume brought to 1 L) 3 times for 10 min/time. The membranes were incubated with a secondary antibody (Abcam) diluted in 5% BSA at room temperature for 2 h, and then washed with 1×TBST buffer 3 times for 10 min/time. Finally, the membranes were incubated with Clarity Western ECL Substrate (BIO-RAD) for 5 min for luminescence and color development, and a ChemiScope 6200 Touch chemiluminescence imaging system (Clinx) was used for color development and protein mapping. Gray value analysis of the protein maps was performed using the chemiluminescence analysis software (Clinx). The gray correction value for each sample was calculated using the formula: gray correction value=(gray value of target protein/gray value of corresponding internal reference)×10^3. Then degradation rates were calculated by comparison with the gray correction value of the control group. […]

Assay [5] has as its system KRAS G12D mutant human pancreatic cancer cell Panc 04.03. Briefly: 3D cell proliferation inhibition assay, Panc 04.03. It counts as cell-based. The note with it: 168 h, Panc 04.03, 7 days, CTG, numeric values. In a few lines:
as §1

Assay [6] has as its system KRAS G12D mutant human lung cancer cell A427. Briefly: 3D cell proliferation inhibition assay, A427. It counts as cell-based. To be noted: A-427, 168 h, A427, 7 days, CTG, numeric values. A digest of the protocol: as §1
The target of assay [7] is T1, KRAS-G12D. Nature of the assay: KRAS-G12D degradation assay (Western Blot), Panc 04.03 cells. To be noted: 24 h. The assay is classed as cell-based. On the procedure: as §3, §4
Assay [8] addresses T1, KRAS-G12D. Nature of the assay: KRAS-G12D degradation assay (Western Blot), AsPc-1 cells. The note with it: for DC50: 24 h; for Dmax: ASPC1, 24 h. The assay is classed as cell-based. In a few lines:
as §2

Assay [9] relates to KRAS G12D mutant human pancreatic cancer cell HPAC. Nature of the assay: 3D cell proliferation inhibition assay, HPAC. The assay is classed as cell-based. To be noted: 168 h, 7 days, CTG. A digest of the protocol:
as §1

The subject of assay [10] is KRAS G12D mutant human metastatic pancreatic cancer cell AsPc-1. Briefly: 3D cell proliferation inhibition assay, AsPc-1. The note with it: ASPC1, 168 h, AsPc-1, 7 days, CTG, numeric values. It counts as cell-based. A digest of the protocol: as §1

The IC50 is the concentration that gives 50% inhibition. What is called DC50 is the concentration at which degradation of the target reaches its halfway point. The low end stands for degradation at low concentration, the high end for degradation only at high concentration. The Dmax is the largest share of the target that was removed. The low end stands for a partial loss of target, the high end for a fuller loss of target.

T1 sequence (P01116 1-188 isoform P01116-2 G12D): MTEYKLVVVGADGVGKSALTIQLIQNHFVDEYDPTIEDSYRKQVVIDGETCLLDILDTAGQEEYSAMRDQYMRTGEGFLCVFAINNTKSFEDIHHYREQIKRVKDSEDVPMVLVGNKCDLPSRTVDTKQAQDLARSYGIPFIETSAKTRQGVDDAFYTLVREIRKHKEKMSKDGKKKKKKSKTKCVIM

Regarding `C#Cc1c(F)ccc2cc(O)cc(-c3ncc4c(N5CC6CCC(C5)N6)nc(OC[C@@]56CCCN5C[C@H](F)C6)nc4c3F)c12` [MRTX1133], the specificity result in the assay with KRAS-G12D mutant cells is “more than 1000 times”. The “inhibition in xenograft tumor models” value in assay [1] is “Dose-dependent inhibition”.

On to `C#Cc1cccc2cc(O)cc(-c3ccc4c(N5CC6CCC(C5)N6)nc(OCC5(CN6CCN(CC7CCC8(CC7)CCN(C(=O)c7ccc(Cl)c(N9CCC(=O)NC9=O)c7)CC8)CC6)CC5)nc4c3F)c12` [Example 78, 1-(5-(9-((4-((1-(((4-(3,8-diazabicyclo[3.2.1]octan-3-yl)-7-(8-ethynyl-3-hydroxynaphthalen-1-yl)-8-fluoroquinazolin-2-yl)oxy)methyl)cyclopropyl)methyl)piperazin-1-yl)methyl)-3-azaspiro[5.5]undecane-3-carbonyl)-2-chlorophenyl)dihydropyrimidine-2,4(1H,3H)-dione], for which the concentration for half-maximal inhibition (IC50) in assay [2] is 0.00925 µM; in [5], 0.0379 µM; in assay [6], 0.0163 µM; in assay [9] it was 0.0187 µM; in [10], 0.017 µM. The DC50 on KRAS-G12D [3] came out at 0.0101 µM; on KRAS-G12D [4], 0.0289 µM; on KRAS-G12D [7], 0.0163 µM; on KRAS-G12D [8], 0.0237 µM. Further, the Dmax came to 70.2% on KRAS-G12D [3], 92.6% on KRAS-G12D [4], 100% on KRAS-G12D [7] and 100% on KRAS-G12D [8].

As to `C#Cc1cccc2cc(O)cc(-c3ccc4c(N5CC6CCC(C5)N6)nc(OCC5(CN6CCN(CC7CCC8(CC7)CCN(C(=O)c7ccc(C)c(N9CCC(=O)NC9=O)c7)CC8)CC6)CC5)nc4c3F)c12` [Example 77, 1-(5-(9-((4-((1-(((4-(3,8-diazabicyclo[3.2.1]octan-3-yl)-7-(8-ethynyl-3-hydroxynaphthalen-1-yl)-8-fluoroquinazolin-2-yl)oxy)methyl)cyclopropyl)methyl)piperazin-1-yl)methyl)-3-azaspiro[5.5]undecane-3-carbonyl)-2-methylphenyl)dihydropyrimidine-2,4(1H,3H)-dione], the IC50 in assay [2] is 0.0089 µM; in assay [5] it was 0.0315 µM; in [6] it was 0.0178 µM; in assay [9], 0.00954 µM; in [10], 0.00675 µM. Besides, the 50% degradation concentration (DC50) on KRAS-G12D [3] is 0.00176 µM; on KRAS-G12D [4] it was 0.00147 µM; on KRAS-G12D [7], 0.0262 µM; at KRAS-G12D [8], 0.0132 µM. Besides, the Dmax on KRAS-G12D [3] came out at 94.5%; on KRAS-G12D [4], 100%; on KRAS-G12D [7], 98.5%; at KRAS-G12D [8], 98.2%.
